Laboratory results from patent US20260183302A1, “PDK1 REGULATORY COMPOUND AND COMPOSITION CONTAINING THE SAME” (PROVIBIO CO., LTD., priority 2024, published 2026).
Entries after “also recorded” stand apart in the source; their conditions may differ.

Key:
psoriasis-induced mice = test: In vivo psoriasis model (Aldara cream, Imiquimod); parameters: species or system BALB/c mice
Description: To verify the therapeutic effect of the compound according to the present invention on psoriasis, a psoriasis animal model was established as follows, and the compound according to the present invention was administered to evaluate the alleviation of skin lesions and changes in immune cell patterns.
For the establishment of the psoriasis animal model, BALB/c mice (7 weeks old, female, 20 g) were purchased from HanabioTech Co., Ltd. and acclimatized to the rearing environment for one week.
Subsequently, the hair on the mouse back was shaved using a hair removal device for the first time, and then completely shaved using a depilatory cream (Nicrin Cream (80% thioglycolic acid, Il Dong Pharmaceutical)) for the second time. The mice were then kept for 24 hours to confirm the absence of skin damage.
To verify the psoriasis prevention and therapeutic effects of the compounds according to the present invention, the following experimental groups were established:
[Normal control group (Normal, Not Treatment), psoriasis-induced control group (Psoriasis, Not Treatment), psoriasis-induced vehicle control group (Psoriasis, Vehicle), experimental group (GO85, GO86, GO88, GO89, PBK-2024-010, PBK-2024-026, PBK-2025-002, PBK-2025-004, PBK-2025-016, PBK-2025-017, PBK-2025-023)]. […]
Body weights of mice in each group were measured on days 1, 4, and 8 after the start of injection and psoriasis induction. […]
To evaluate the therapeutic effect in a psoriasis-induced mouse model, the PASI (Psoriasis Area and Severity Index) score was measured.
The PASI score is based on three criteria: erythema, scaling, and skin thickness, each scored from 0 (none) to 4 (severe). […]
Observations were conducted daily at the same time, and the same observer visually assessed each criterion and recorded the scores, with the results presented in FIG. 13. […]
All samples were measured in duplicate, and the absorbance was measured at 450 nm using a microplate reader.

[1] = test system: HCT-116 colon cancer cell lines; test: Matrigel Invasion Assay on HCT-116 colon cancer cell line; type: cell-based, human; settings: HCT-116, Matrigel, 24 hours treatment, vs DMSO
Description: To evaluate the metastasis inhibitory efficacy of the compounds of the present invention on HCT-116 colon cancer cell lines, an Invasion Assay using Matrigel was performed to assess the cells' invasion ability.
First, Matrigel was thawed on ice in RPMI-1640 medium without FBS, then diluted with DMEM at a ratio of 1:20.
The diluted Matrigel mixture was applied to the upper chamber at 100 μl per well, and 750 μl of RPMI-1640 without FBS was added to the lower chamber.
The plates were then incubated at 37° C. for 1 hour to allow the Matrigel to solidify.
After coating, the Matrigel mixture in the upper chamber was removed using a pipette, and the chamber was washed with RPMI without FBS.
Human-derived colorectal cancer cell line HCT-116, obtained from the Korean Cell Bank, was cultured in RPMI-1640 medium containing 10% FBS.
Following stabilization, the cells were harvested using Trypsin-EDTA treatment, centrifuged at 1,200 rpm for 3 minutes, the supernatant was removed, and the cells were resuspended in the same medium, the medium in the lower chamber was replaced with 750 μl of RPMI-1640 supplemented with 10% FBS, and the cells were seeded into the upper chamber at a density of 5×10^4 cells/well.
The cells were cultured for 24 hours after attachment, and then the compounds according to the present invention (G078, G085, G086, G088, G089, PBK-2024-010, PBK-2025-010, PBK-2025-013, PBK-2025-016) and the control substance DMSO were diluted and added to the upper chamber after removing the medium.
Additionally, the medium in the lower chamber was replaced with fresh RPMI-1640 containing FBS, and the culture was continued.
After an additional 24 hours, the medium was removed, and 1 ml of methanol was added for 10 minutes to fix the cells.
Subsequently, 1 ml of Hematoxylin was added and reacted for 5 minutes, followed by 1 ml of Eosin, which was reacted for 30 seconds. The sample was then washed with distilled water (DW).
After staining was complete, any remaining cells in the upper chamber were removed. Finally, the infiltrated cells were observed under a microscope, photographed, and the degree of infiltration was analyzed.

[2] = test system: MRL/lpr mice with hair loss in the facial region; test: Hair loss treatment and hair follicle Ki-67 IHC in MRL/lpr mice; type: in vivo; settings: 41-week-old female MRL/lpr; GO15F (30 mg/kg), GO48 (1 mg/kg), GO88 (0.5 mg/kg) intraperitoneal once daily
Description: Additionally, in 41-week-old female MRL/Ipr mice, the compounds GO15F (30 mg/kg), GO48 (1 mg/kg), and GO88 (0.5 mg/kg) were administered intraperitoneally once daily.
To confirm the proliferative activity of hair follicle cells in the skin tissue of these mice, the mice were sacrificed 14 days after administration of the compounds of the present invention, and Ki-67 immunohistochemistry (IHC) was performed.
For this purpose, the excised skin tissue was fixed in formalin, embedded in paraffin blocks, and stained with a Ki-67-specific antibody on tissue sections prepared as slides.

[3] = test system: PDK1 phosphorylation in SU-DHL-8 cells; test: PDK1 phosphorylation inhibition by flow cytometry (pPDK1-PE) in SU-DHL-8 cells; type: cell-based, human; settings: SU-DHL-8, 24 hours, vs control group, listed as GO48
Description: After stabilizing the cells, the compound of the present invention was added, and the cells were cultured for 24 hours.
After drug treatment, the cells were harvested, and the Fc receptor blocking process was performed. The cells were then fixed and permeabilized using the Intracellular Staining Kit (Cat. No. BD554715) from BD Biosciences. Subsequently, the intracellular pPDK1 was stained using the pPDK1-PE fluorescently labeled antibody (BD Biosciences).
Referring to the figure, the vertical axis represents the phosphorylation level of PDK1 (phospho-PDK1 expression level), and the horizontal axis denotes the concentration-dependent treatment conditions of each compound.

SMILES	efficacy in improving dermatological symptoms (psoriasis-induced mice)	number of infiltrated cells (invasion) [1]	hair growth on the facial region [2]	phospho-PDK1 expression level [3]
Nc1nc(NC(=O)CCCCCCCCCCCCN2CCN(CCO)CC2)nc2nc[nH]c12 [Compound 15, 12-[4-(2-hydroxyethyl)piperazin-1-yl]dodecyl-N-(6-aminopurine-2-yl) carboxamide]	excellent efficacy in improving dermatological symptoms	reduction in the number of infiltrated cells	–	–
Nc1ncccc1C(=O)NCCCCCCCCCCCCN1CCOCC1 [Compound 2, 2-amino-N-(12-morpholin-4-yl-dodecyl)-nicotinamide]	–	–	hair growth was confirmed	stronger PDK1 inhibition; also recorded: high inhibitory effects even at low concentrations
